Measurements taken from patent US12042501B2, “Metal protoporphyrin for treatment of BK virus” (Renibus Therapeutics, Inc., priority 2021, dated 2024).
“Also recorded” adds a separate entry of the source. Read-outs that look alike come from different tables or passages of the source.

Key:
Adenovirus (Adv) = experiment: AdV primary antiviral assay; type: cell-based
BK Virus [1] = experiment: BK virus viral neutralization assay (pre-incubation of SnPP with BK virus for 1 hour prior to infection), qPCR; type: cell-based, strain Gardner; details: for SI50 / SI90 / EC50 / EC90: experiment 21-bk2-004; for SI50 / SI90: Secondary (Neutralization); for SI50: CC50/EC50; for SI90: CC50/EC90; for EC50 / EC90: Secondary (Neutralization, pre-incubation of virus), BK Virus Gardner in HFF, qPCR (DNA)
CMV = CMV primary antiviral assay; type: cell-based
[2] = tested on: non-enveloped polio virus; details: in vitro; Neris et al. 2018; cited from earlier work
HFF cells = experiment: Cellular viability by CellTiter-Glo in the BK virus assays
JC virus [3] = experiment: JC virus neutralization assay (pre-incubation of virus with RBT-9) in COS7 cells; type: cell-based, 1-4 strain
Method: The present inventors used assays to determine the antiviral activity against various pathogens, including particularly the BK virus. Two conditions were investigated: 1) standard qPCR-based antiviral assay—treatment with SnPP at the time of infection and 2) viral neutralization—pre-incubation of SnPP with BK virus for 1 hour prior to infection. SnPP was tested at concentrations up to 100 μM. Human foreskin fibroblast (HFF) cells were used as the host cell. Viral activity was assessed by real time qPCR and cellular viability was determined by CellTiter-Glo.
(§1) Primary evaluation of compounds against JC virus were also performed by methods similar to those for BK virus primary assays but were done in COS7 cells and utilized the 1-4 strain of JCV in COS7 cells. Viral DNA was quantified using primers 5′-[…]-3′ and 5′-[…]-3′ and probe 5′-6-FAM-[…]-TAMRA-3 together with the plasmid pMP508 to provide a standard curve for absolute quantification. Secondary assays against JCV were also performed in COS7 cells by methods similar to those for BK virus to identify compounds that inhibited adsorption or penetration of the virus. • EC50—compound concentration that reduces viral replication by 50% • EC90—compound concentration that reduces viral replication by 90% • CC50—compound concentration that reduces cell viability by 50% • SI50—CC50/EC50 • SI90—CC50/EC90

[4] = tested on: acute kidney injury (AKI); details: animals; given prior to insult; cited from earlier work
[5] = in vivo
HPV (HPV11) = experiment: HPV primary antiviral assay; type: cell-based, Human Papilloma Virus
enveloped viruses = details: in vitro; Neris et al. 2018; cited from earlier work
JC virus [6] = experiment: JC virus qPCR antiviral assay in COS7 cells (primary/standard); type: cell-based, 1-4 strain; details: for Activity / EC50 / EC90 / SI50: JC; for Activity: Non-enveloped; for SI50: CC50/EC50
Method: as §1

BK Virus [7] = experiment: BK virus standard qPCR-based antiviral assay (treatment with SnPP at the time of infection; primary and secondary); type: cell-based, strain Gardner; details: for Activity: BK; for SI50: CC50/EC50; for SI90: CC50/EC90
[8] = Cellular viability by CellTiter-Glo in the BK virus assays; details: human
[9] = experiment 21-bk2-003, Primary (Standard), HFF, CellTiter-Glo
[10] = experiment 21-bk2-004, Secondary (Neutralization), HFF, CellTiter-Glo
[11] = experiment 21-bk2-001, Secondary
[12] = experiment 21-bk2-003, Primary (Standard)

For C=CC1=C(C)c2cc3[n-]c(cc4[n-]c(cc5nc(cc1n2)C(C)=C5C=C)c(C)c4CCC(=O)O)c(CCC(=O)O)c3C.[Sn+2] [SnPP, Stannous protoporphyrin], the “inactivating activity against Adenovirus (in words)” value (Adenovirus (Adv)) was “not found; also recorded: Minimal to no activity”, the Activity (Adenovirus (Adv); AdV, Non-enveloped, Primary) was “NONE” and the EC50 (Adenovirus (Adv); AdV, Primary) was over 30 µM. For the same compound, the EC90 (Adenovirus (Adv); AdV, Primary) was over 30 µM, the SI50 (Adenovirus (Adv); AdV, Primary, CC50/EC50) was under 1 and the Activity (BK Virus [1]; BK, Secondary (Neutralization) (21-bk2-004)) was “MODERATE”. For the same compound, the SI50 (BK Virus [1]) was 15, the SI90 (BK Virus [1]) was 3 and the EC50 (BK Virus [1]) was 5.4 µM. It also gave an EC90 (BK Virus [1]) of 32.9 µM, an EC50 (CMV) of over 6 µM and an EC90 (CMV) of over 6 µM. The SI50 (CMV; CC50/EC50) was under 3, the Activity (CMV; Enveloped) was “NONE” and the “activity against polio virus” value [2] was “no activity”. The “concentration not adversely affecting host cell viability, times higher than effective concentration” value (HFF cells; CC50 average versus effective concentration, BK virus assays) was 16.5 times, the CC50 (HFF cells; experiment 20-bk-007, Primary, HFF, CellTiter-Glo) was 62.3 µM and the CC50 (HFF cells; experiment 21-bk2-001, Secondary, HFF, CellTiter-Glo) was 95.8 µM. The CC50 (HFF cells; [9]) was 82.7 µM, the CC50 (HFF cells; [10]) was 82.7 µM and the CC50 (HFF cells; read-out: 50% cytotoxic concentration (CC50), average, averaged in the in vitro studies, host cell viability) was 89.2 µM. The Activity (JC virus [3]; Non-enveloped, Secondary (Neutralization, pre-incubation of virus with RBT-9)) was “MINIMAL”, the EC50 (JC virus [3]; Secondary (Neutralization)) was 18.9 µM and the EC90 (JC virus [3]; Secondary (Neutralization)) was over 20 µM. The SI50 (JC virus [3]; Secondary (Neutralization), CC50/EC50) was 4, the “protection against acute kidney injury (AKI)” value [4] was “protective” and the tolerability [5] was “well tolerated”. The “inactivating activity against HPV (in words)” value (HPV (HPV11)) was “not found; also recorded: Minimal to no activity”, the Activity (HPV (HPV11); HPV (HPV11), Non-enveloped, Primary) was “MINIMAL” and the EC50 (HPV (HPV11); HPV (HPV11), Primary) was 23.4 µM. For the same compound, the EC90 (HPV (HPV11); HPV (HPV11), Primary) was over 30 µM, the SI50 (HPV (HPV11); HPV (HPV11), Primary, CC50/EC50) was 5 and the “antiviral activity against enveloped viruses” value (enveloped viruses) was “broad antiviral activity”. For the same compound, the “inactivating activity against JC virus (in words)” value (JC virus [6]) was “moderate inactivating activity”, the Activity (JC virus [6]; Primary) was “MODERATE” and the Activity (JC virus [6]; Primary (Standard)) was “MODERATE”. The EC50 (JC virus [6]; Primary) was 5.38 µM, the EC90 (JC virus [6]; Primary) was over 30 µM and the EC50 (JC virus [6]; Primary (Standard)) was 9.93 µM. For the same compound, the EC90 (JC virus [6]; Primary (Standard)) was 63.1 µM, the SI50 (JC virus [6]; Primary (Standard)) was 7 and the SI50 (JC virus [6]; Primary) was 19. The Activity (BK Virus [7]; Primary (20-bk-007)) was “MODERATE”, the Activity (BK Virus [7]; Primary (Standard) (21-bk2-003)) was “MODERATE” and the Activity (BK Virus [7]; Secondary (21-bk2-001)) was “HIGH”. For the same compound, the EC50 (BK Virus [7]; averaged in 2 independently run standard qPCR assays, BK virus, read-out: 50% effective concentration (EC50), average) was 5.5 µM, the “antiviral / inactivating activity against BK virus (in words)” value (BK Virus [7]; both treatment conditions) was “broad inactivating activity; also recorded: moderate antiviral activity; also recorded: most significant activity” and the EC90 (BK Virus [7]; experiment 20-bk-007, Primary, BK Virus Gardner in HFF, qPCR (DNA)) was 26.6 µM. It also gave an EC50 (BK Virus [7]; experiment 20-bk-007, Primary, BK Virus Gardner in HFF, qPCR (DNA), read-out: EC50) of 8.08 µM, an SI50 (BK Virus [7]; experiment 20-bk-007, Primary) of 8 and an SI90 (BK Virus [7]; experiment 20-bk-007, Primary) of 2. For the same compound, the EC90 (BK Virus [7]; experiment 21-bk2-001, Secondary, BK Virus Gardner in HFF, qPCR (DNA)) was 30.1 µM, the EC50 (BK Virus [7]; experiment 21-bk2-001, Secondary, BK Virus Gardner in HFF, qPCR (DNA), read-out: EC50) was 2.4 µM and the SI50 (BK Virus [7]; [11]) was 40. The SI90 (BK Virus [7]; [11]) was 3, the EC90 (BK Virus [7]; experiment 21-bk2-003, Primary (Standard), BK Virus Gardner in HFF, qPCR (DNA)) was 81.8 µM and the EC50 (BK Virus [7]; experiment 21-bk2-003, Primary (Standard), BK Virus Gardner in HFF, qPCR (DNA), read-out: EC50) was 8.6 µM. The SI50 (BK Virus [7]; [12]) was 10 and the SI90 (BK Virus [7]; [12]) was 1.
Nc1ccn(C[C@@H](CO)OCP(=O)(O)O)c(=O)n1 [Cidofovir, reference compound] showed an EC50 (BK Virus [1]; Betapolyomavirus hominis) of over 100 µM, an EC90 (BK Virus [1]; Betapolyomavirus hominis) of over 100 µM and an SI50 (BK Virus [1]) of 1. For the same compound, the SI90 (BK Virus [1]) was 1, the CC50 (HFF cells; [9]) was over 100 µM and the CC50 (HFF cells; [10]) was over 100 µM. The CC50 [8] was over 100 µM, the CC50 ([8]; CC50, experiment 20-bk-007, Primary, HFF, CellTiter-Glo) was over 150 µM and the EC90 (BK Virus [7]; Betapolyomavirus hominis, experiment 20-bk-007, Primary, BK Virus Gardner in HFF, qPCR (DNA)) was 117 µM. The EC50 (BK Virus [7]; Betapolyomavirus hominis, experiment 20-bk-007, Primary, BK Virus Gardner in HFF, qPCR (DNA), read-out: EC50) was 6.28 µM, the EC90 (BK Virus [7]; Betapolyomavirus hominis, experiment 21-bk2-001, Secondary, BK Virus Gardner in HFF, qPCR (DNA)) was 10.7 µM and the EC50 (BK Virus [7]; Betapolyomavirus hominis, experiment 21-bk2-001, Secondary, BK Virus Gardner in HFF, qPCR (DNA), read-out: EC50) was 0.72 µM. For the same compound, the EC90 (BK Virus [7]; Betapolyomavirus hominis, experiment 21-bk2-003, Primary (Standard), BK Virus Gardner in HFF, qPCR (DNA)) was 17.9 µM, the EC50 (BK Virus [7]; Betapolyomavirus hominis, experiment 21-bk2-003, Primary (Standard), BK Virus Gardner in HFF, qPCR (DNA), read-out: EC50) was 0.13 µM and the SI50 (BK Virus [7]; experiment 20-bk-007, Primary) was over 24. It also gave an SI90 (BK Virus [7]; experiment 20-bk-007, Primary) of over 1, an SI50 (BK Virus [7]; [11]) of over 139 and an SI90 (BK Virus [7]; [11]) of over 9. The SI50 (BK Virus [7]; [12]) was over 769 and the SI90 (BK Virus [7]; [12]) was over 6.
In the case of C=Cc1c(C)c2cc3[nH]c(cc4nc(cc5nc(cc1[nH]2)C(C)=C5CCC(=O)[O-])C(CCC(=O)[O-])=C4C)c(C)c3C=C.[Co+2] [Cobalt protoporphyrin, Co-protoporphyrin IX, reference compound], the “activity against polio virus” value [2] is listed as “no activity” and the “antiviral activity against enveloped viruses” value (enveloped viruses) is listed as “broad antiviral activity”.
